Earlier results as cited in US8512522B2, “Method of producing paper with methane reduction ingredients” (priority 2011, dated 2013).
Where two headings read alike, the source gives them in different places.

Experiments:
[1] = tested on: Anaerobic digested sludge + activated sludge
Anaerobic digester = conditions: methane inhibition
Marine sediments = conditions: methane inhibition
Sewage sludge = conditions: methane inhibition
Anaerobic medium = conditions: methane inhibition

Row | Compound | Suppressive Concentration (Anaerobic digester) | further results
1 | O=S(=O)(O)CCBr [2-Bromoethane sulfonic acid] | – | Suppressive Concentration ([1]; completely inhibited, Parameswaran et al., 2009): 50 mM; Suppressive Concentration ([1]; potently inhibited, Chae et al., 2010): 0.1 to 0.27 mM
2 | [Ca+2] [Calcium] | >2,500 mg/L | –
3 | [Cu+2] [Copper (Cu2+)] | 10 to 250 mg/L | –
4 | C=C [Ethylene] | – | Suppressive Concentration (Marine sediments): >5% v/v
5 | [Fe+3] [Ferric iron (Fe3+)] | – | Suppressive Concentration (Sewage sludge): 21 mg/L
6 | [Mg+2] [Magnesium] | >1,000 mg/L | –
7 | [Ni+2] [Nickel (Ni2+)] | – | Suppressive Concentration (Anaerobic medium): 2.5 mM
8 | [K+] [Potassium] | >2,500 mg/L | –
9 | [Zn+2] [Zinc (Zn2+)] | 10 to 250 mg/L | –
10 | Sodium | >3,500 mg/L | –
